Results taken from the supplement of paper PMC11451515.

What was measured:
Conditions in all cases: 48 h
NOMO1 [1] = test: cell viability relative to DMSO control; higher = less cytotoxic
How it was run: (§1)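 Cells were incubated for 48 h at 37°C before CellTiter-Glo One luminescence was read. The cells were NOMO1 or SEM (500 cells/well) or P12-Ichikawa (1000 cells/well) leukemia cells, adapted for at least four passages in each medium and seeded in 1536-well plates (5 μl). Dosing used library compounds in DMSO applied by pin over 11 threefold points, 47 μM to 0.79 nM. Viability is the per-plate percentage of DMSO wells, with cell-free wells as background.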

P12-Ichikawa [2] = test: as above
How it was run: as §1

SEM cells [3] = test: as above
How it was run: as §1

NOMO1 [4] = test: AUC of viability dose-response curve (% viability x log10 dose units); higher = less sensitive
How it was run: (§2)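 Leukemia cells adapted to each medium were seeded in 1536-well plates (500 or 1000 cells/well). They were dosed with library compounds in DMSO at 11 threefold doses, 47 μM to 0.79 nM, for 48 h at 37°C. CellTiter-Glo One luminescence was normalised per plate to DMSO and cell-free wells. Area under the curve was integrated by trapezoidal rule over log10 doses on a four-parameter log-logistic fit; curves exceeding full viability were scaled and curves failing quality control removed.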

P12-Ichikawa [5] = test: as above
How it was run: as §2

SEM cells [6] = test: as above
How it was run: as §2

CCNC(=O)Nc1ccc(-c2nc3c(c(N4CCOC[C@@H]4C)n2)CCN(C2COC2)C3)cc1
cell viability [%]
Conditions | NOMO1 [1] | P12-Ichikawa [2] | SEM cells [3]
HPLM + 10% dialyzed FBS, 0.000781 µM | 117 | 114 | 96.1
HPLM + 10% dialyzed FBS, 0.00234 µM | 130 | 111 | 116
HPLM + 10% dialyzed FBS, 0.00702 µM | 102 | 113 | 111
HPLM + 10% dialyzed FBS, 0.0211 µM | 119 | 112 | 113
HPLM + 10% dialyzed FBS, 0.0632 µM | 101 | 110 | 108
HPLM + 10% dialyzed FBS, 0.19 µM | 95.9 | 100 | 87.7
HPLM + 10% dialyzed FBS, 0.569 µM | 88.6 | 82.1 | 98.9
HPLM + 10% dialyzed FBS, 1.71 µM | 66.5 | 63.8 | 57.7
HPLM + 10% dialyzed FBS, 5.12 µM | 57.6 | 56.6 | 43.5
HPLM + 10% dialyzed FBS, 15.4 µM | 44.5 | 49.5 | 31.7
HPLM + 10% dialyzed FBS, 46.1 µM | 40.5 | 46.1 | 32.1
RPMI 5 mM glucose + 10% FBS, 0.000781 µM | 109 | 113 | 105
RPMI 5 mM glucose + 10% FBS, 0.00234 µM | 102 | 113 | 105
RPMI 5 mM glucose + 10% FBS, 0.00702 µM | 105 | 107 | 114
RPMI 5 mM glucose + 10% FBS, 0.0211 µM | 107 | 116 | 108
RPMI 5 mM glucose + 10% FBS, 0.0632 µM | 105 | 104 | 113
RPMI 5 mM glucose + 10% FBS, 0.19 µM | 94.6 | 96.8 | 95.1
RPMI 5 mM glucose + 10% FBS, 0.569 µM | 98.9 | 82.7 | 87.8
RPMI 5 mM glucose + 10% FBS, 1.71 µM | 84.6 | 61.6 | 55.7
RPMI 5 mM glucose + 10% FBS, 5.12 µM | 67.3 | 55.4 | 41.1
RPMI 5 mM glucose + 10% FBS, 15.4 µM | 52.8 | 41.3 | 27
RPMI 5 mM glucose + 10% FBS, 46.1 µM | 46.6 | 33.9 | 20.9
RPMI 5 mM glucose + 10% dialyzed FBS, 0.000781 µM | 108 | 114 | 119
RPMI 5 mM glucose + 10% dialyzed FBS, 0.00234 µM | 115 | 108 | 125
RPMI 5 mM glucose + 10% dialyzed FBS, 0.00702 µM | 119 | 111 | 104
RPMI 5 mM glucose + 10% dialyzed FBS, 0.0211 µM | 102 | 106 | 120
RPMI 5 mM glucose + 10% dialyzed FBS, 0.0632 µM | 98.4 | 103 | 121
RPMI 5 mM glucose + 10% dialyzed FBS, 0.19 µM | 97.2 | 95.8 | 109
RPMI 5 mM glucose + 10% dialyzed FBS, 0.569 µM | 101 | 79.3 | 102
RPMI 5 mM glucose + 10% dialyzed FBS, 1.71 µM | 66.7 | 64.1 | 79.2
RPMI 5 mM glucose + 10% dialyzed FBS, 5.12 µM | 66.5 | 54.6 | 51.4
RPMI 5 mM glucose + 10% dialyzed FBS, 15.4 µM | 52.8 | 39.9 | 41
RPMI 5 mM glucose + 10% dialyzed FBS, 46.1 µM | 45.4 | 32.7 | 36.1

AUC of viability dose-response curve
Conditions | NOMO1 [4] | P12-Ichikawa [5] | SEM cells [6]
HPLM + 10% dialyzed FBS | 352 | 370 | 366
RPMI 5 mM glucose + 10% FBS | 407 | 358 | 353
RPMI 5 mM glucose + 10% dialyzed FBS | 380 | 356 | 378

O=C(NCCO[N+](=O)[O-])c1cccnc1
cell viability [%]
Conditions | NOMO1 [1] | P12-Ichikawa [2] | SEM cells [3]
HPLM + 10% dialyzed FBS, 0.000781 µM | 112 | 112 | 99.3
HPLM + 10% dialyzed FBS, 0.00234 µM | 124 | 113 | 64.4
HPLM + 10% dialyzed FBS, 0.00702 µM | 123 | 118 | 107
HPLM + 10% dialyzed FBS, 0.0211 µM | 133 | 122 | 114
HPLM + 10% dialyzed FBS, 0.0632 µM | 137 | 115 | 105
HPLM + 10% dialyzed FBS, 0.19 µM | 126 | 117 | 97.1
HPLM + 10% dialyzed FBS, 0.569 µM | 136 | 115 | 101
HPLM + 10% dialyzed FBS, 1.71 µM | 135 | 116 | 98.7
HPLM + 10% dialyzed FBS, 5.12 µM | 129 | 113 | 108
HPLM + 10% dialyzed FBS, 15.4 µM | 123 | 121 | 105
HPLM + 10% dialyzed FBS, 46.1 µM | 62.3 | 118 | 115
RPMI 5 mM glucose + 10% FBS, 0.000781 µM | – | 112 | 100
RPMI 5 mM glucose + 10% FBS, 0.00234 µM | – | 126 | 92.8
RPMI 5 mM glucose + 10% FBS, 0.00702 µM | – | 120 | 112
RPMI 5 mM glucose + 10% FBS, 0.0211 µM | – | 130 | 111
RPMI 5 mM glucose + 10% FBS, 0.0632 µM | – | 121 | 112
RPMI 5 mM glucose + 10% FBS, 0.19 µM | – | 119 | 114
RPMI 5 mM glucose + 10% FBS, 0.569 µM | – | 126 | 96.1
RPMI 5 mM glucose + 10% FBS, 1.71 µM | – | 126 | 102
RPMI 5 mM glucose + 10% FBS, 5.12 µM | – | 127 | 112
RPMI 5 mM glucose + 10% FBS, 15.4 µM | – | 126 | 121
RPMI 5 mM glucose + 10% FBS, 46.1 µM | – | 118 | 108
RPMI 5 mM glucose + 10% dialyzed FBS, 0.000781 µM | 118 | 112 | 107
RPMI 5 mM glucose + 10% dialyzed FBS, 0.00234 µM | 120 | 116 | 89.6
RPMI 5 mM glucose + 10% dialyzed FBS, 0.00702 µM | 123 | 109 | 112
RPMI 5 mM glucose + 10% dialyzed FBS, 0.0211 µM | 135 | 114 | 109
RPMI 5 mM glucose + 10% dialyzed FBS, 0.0632 µM | 127 | 111 | 97.6
RPMI 5 mM glucose + 10% dialyzed FBS, 0.19 µM | 119 | 123 | 111
RPMI 5 mM glucose + 10% dialyzed FBS, 0.569 µM | 133 | 111 | 96.6
RPMI 5 mM glucose + 10% dialyzed FBS, 1.71 µM | 124 | 112 | 105
RPMI 5 mM glucose + 10% dialyzed FBS, 5.12 µM | 125 | 112 | 110
RPMI 5 mM glucose + 10% dialyzed FBS, 15.4 µM | 125 | 111 | 111
RPMI 5 mM glucose + 10% dialyzed FBS, 46.1 µM | 92.1 | 117 | 110

AUC of viability dose-response curve
Conditions | NOMO1 [4] | P12-Ichikawa [5] | SEM cells [6]
HPLM + 10% dialyzed FBS | 463 | 471 | 461
RPMI 5 mM glucose + 10% FBS | 472 | 474 | 455
RPMI 5 mM glucose + 10% dialyzed FBS | 471 | 475 | 461

CN(c1nccc(=O)[nH]1)C1CCN(c2nc3ccccc3n2Cc2ccc(F)cc2)CC1
cell viability [%]
Conditions | NOMO1 [1] | P12-Ichikawa [2] | SEM cells [3]
HPLM + 10% dialyzed FBS, 0.000781 µM | 90 | 108 | 105
HPLM + 10% dialyzed FBS, 0.00234 µM | 104 | 104 | 107
HPLM + 10% dialyzed FBS, 0.00702 µM | 116 | 109 | 115
HPLM + 10% dialyzed FBS, 0.0211 µM | 117 | 110 | 113
HPLM + 10% dialyzed FBS, 0.0632 µM | 128 | 111 | 112
HPLM + 10% dialyzed FBS, 0.19 µM | 124 | 119 | 113
HPLM + 10% dialyzed FBS, 0.569 µM | 116 | 118 | 108
HPLM + 10% dialyzed FBS, 1.71 µM | 120 | 118 | 110
HPLM + 10% dialyzed FBS, 5.12 µM | 105 | 114 | 115
HPLM + 10% dialyzed FBS, 15.4 µM | 111 | 112 | 91
HPLM + 10% dialyzed FBS, 46.1 µM | 99.1 | 110 | 123
RPMI 5 mM glucose + 10% FBS, 0.000781 µM | 104 | 113 | 78.4
RPMI 5 mM glucose + 10% FBS, 0.00234 µM | 101 | 110 | 94.8
RPMI 5 mM glucose + 10% FBS, 0.00702 µM | 112 | 101 | 95
RPMI 5 mM glucose + 10% FBS, 0.0211 µM | 104 | 114 | 80
RPMI 5 mM glucose + 10% FBS, 0.0632 µM | 114 | 124 | 84.8
RPMI 5 mM glucose + 10% FBS, 0.19 µM | 115 | 111 | 88.9
RPMI 5 mM glucose + 10% FBS, 0.569 µM | 130 | 116 | 95.3
RPMI 5 mM glucose + 10% FBS, 1.71 µM | 126 | 109 | 98.1
RPMI 5 mM glucose + 10% FBS, 5.12 µM | 117 | 115 | 91.9
RPMI 5 mM glucose + 10% FBS, 15.4 µM | 108 | 115 | 79.7
RPMI 5 mM glucose + 10% FBS, 46.1 µM | 105 | 123 | 87.7
RPMI 5 mM glucose + 10% dialyzed FBS, 0.000781 µM | 109 | 100 | 94.7
RPMI 5 mM glucose + 10% dialyzed FBS, 0.00234 µM | 108 | 108 | 103
RPMI 5 mM glucose + 10% dialyzed FBS, 0.00702 µM | 105 | 109 | 102
RPMI 5 mM glucose + 10% dialyzed FBS, 0.0211 µM | 121 | 108 | 111
RPMI 5 mM glucose + 10% dialyzed FBS, 0.0632 µM | 114 | 125 | 106
RPMI 5 mM glucose + 10% dialyzed FBS, 0.19 µM | 116 | 113 | 113
RPMI 5 mM glucose + 10% dialyzed FBS, 0.569 µM | 122 | 121 | 109
RPMI 5 mM glucose + 10% dialyzed FBS, 1.71 µM | 121 | 112 | 106
RPMI 5 mM glucose + 10% dialyzed FBS, 5.12 µM | 114 | 123 | 101
RPMI 5 mM glucose + 10% dialyzed FBS, 15.4 µM | 131 | 119 | 104
RPMI 5 mM glucose + 10% dialyzed FBS, 46.1 µM | 90.8 | 112 | 99.6

AUC of viability dose-response curve
Conditions | NOMO1 [4] | P12-Ichikawa [5] | SEM cells [6]
HPLM + 10% dialyzed FBS | 466 | 466 | 474
RPMI 5 mM glucose + 10% FBS | 459 | 460 | 424
RPMI 5 mM glucose + 10% dialyzed FBS | 471 | 462 | 473
